Experimental data published in ChEMBL document CHEMBL5236658, “Trienomycin A-simplified analogs: Synthesis and anti-neuroinflammatory activity” (Bioorg Med Chem Lett, 2023).

Columns and labels:
BV-2 [1] = assay: Antineuroinflammatory activity in mouse BV-2 cells assessed as inhibition of LPS-induced NO production at 10 uM by Griess assay; type: functional; parameters: scale not given: the % may be the effect or the level left
[2] = Cytotoxicity against mouse BV-2 cells assessed as cell viability at 20 uM; type: toxicity, cell-based; details: read-out: Activity
[3] = Neurotoxicity against rat PC-12 cells at 20 uM incubated for 24 hrs by MTT assay; type: toxicity, cell-based; details: pc-12, 24 h
BV-2 [4] = assay: Antineuroinflammatory activity in mouse BV-2 cells assessed as inhibition of LPS-induced NO production by Griess assay; type: functional, cell-based
PC-12 = assay: Neuroprotective activity against H2O2-induced rat PC-12 cells injury assessed as cell viability at 10 uM preincubated for 4 hrs followed by H2O2 stimulation and measured after 24 hrs by MTT assay (reference value: 56%); type: functional; details: time 28 hrs, read-out: Activity

| SMILES | Activity (BV-2 [1]) | viability at 20 µM [2] | Activity [3] | EC50 (BV-2 [4]) | viability at 10 µM (PC-12) |
| --- | --- | --- | --- | --- | --- |
| C[C@@H](NC(=O)C1CCCCC1)C(=O)OC1CC=CC1 | 17.7% | 91.5% | – | – | – |
| C[C@@H](NC(=O)C1CCCCC1)C(=O)OC1CCCCCCCCCCC1 | 19% | 105% | – | – | – |
| C[C@@H](NC(=O)C1CCCCC1)C(=O)OC1CCCC1 | 36% | 86.2% | Non-Toxic | – | – |
| C[C@@H](NC(=O)C1CCCCC1)C(=O)OC1C=CCCC1 (some centres undefined) | 14.5% | 85.4% | – | – | – |
| C[C@@H](NC(=O)C1CCCCC1)C(=O)OC1CCC1 | 8% | 106% | – | – | – |
| C[C@H](NC(=O)C1CCCCC1)C(=O)OCC1CCCCC1 | 52.9% | 92.7% | Non-Toxic | 8.9 µM | 76% |
| C[C@@H](NC(=O)C1CCCCC1)C(=O)OCc1ccccc1 | 47.2% | 93% | Non-Toxic | 12.4 µM | 80% |
| C[C@@H](NC(=O)C1CCCCC1)C(=O)OC1CC1 | 9.7% | 97.6% | – | – | – |
| C[C@@H](NC(=O)C1CCCCC1)C(=O)OCC1CCCCC1 | 31.1% | 98.3% | Non-Toxic | 24.1 µM | – |
| C[C@H](NC(=O)C1CCCCC1)C(=O)OCc1ccccc1 | 31.8% | 90% | Non-Toxic | 23.6 µM | – |
| C[C@@H](NC(=O)C1CCCCC1)C(=O)OC1CC/C=C\CCC1 (some centres undefined) | 28.4% | 112% | – | – | – |
| C[C@@H](NC(=O)C1CCCCC1)C(=O)OC1CCCCCCCCCCCCCC1 | 12.5% | 109% | – | – | – |
| O=c1c(O)c(-c2ccc(O)c(O)c2)oc2cc(O)cc(O)c12 [QUERCETIN] | 63.2% | 98.7% | – | – | – |
| C[C@@H](NC(=O)C1CCCCC1)C(=O)OC1CCCCC1 | 34.6% | 97.5% | Non-Toxic | 22 µM | – |
| CO[C@H]1/C=C/C=C/C=C/C[C@H](O)[C@H](C)[C@@H](O)/C(C)=C\CCc2cc(O)cc(c2)NC(=O)C1 | – | – | – | 13 µM | – |
| C[C@@H](NC(=O)C1CCCCC1)C(=O)O | 6.72% | 101% | – | – | – |
| C[C@H](NC(=O)C1CCCCC1)C(=O)OC1CCCCC1 | 41.8% | 91.5% | Non-Toxic | 17.3 µM | 67% |
| CO[C@H]1/C=C/C=C/C=C/C[C@H](OC(=O)[C@@H](C)NC(=O)C2CCCCC2)[C@H](C)[C@@H](O)/C(C)=C\CCc2cc(O)cc(c2)NC(=O)C1 [TRIENOMYCIN A] | – | – | – | 0.02 µM | – |
| C[C@@H](NC(=O)C1CCCCC1)C(=O)OC1CCCCCC1 | 18% | 96.1% | – | – | – |
| C[C@@H](NC(=O)C1CCCCC1)C(=O)OC1CCCCCCC1 | 8.3% | 84% | – | – | – |
